Results taken from patent publication US10227346B2, “Methyl- and trifluoromethyl-substituted pyrrolopyridine modulators of RORC2 and methods of use therof” (Pfizer Inc., priority 2014, dated 2019).

System: IL-17 production from human Th17 cells;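 note: purified human CD4+ T cells activated with anti-CD3 plus anti-CD28 and a Th17-inducing cytokine cocktail, with compound at serial concentrations versus no compound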
Assay: IL-17 production from human Th17 cells;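 note: purified human CD4+ T cells activated with anti-CD3 plus anti-CD28 and a Th17-inducing cytokine cocktail, with compound at serial concentrations versus no compound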
Assay type: cell-based
Settings: IL-17A in supernatant by ELISA after 6 days, human CD4+ T cells under Th17 differentiation

SMILES	IC50 [nM]
Cc1cccc(F)c1C(=O)N1CCC(c2cn(C)c3ncc(NC(=O)c4cccc(C#N)c4)c(C)c23)CC1 [Example 33, 3-cyano-N-(3-(1-(2-fluoro-6-methylbenzoyl)piperidin-4-yl)-1,4-dimethyl-1H-pyrrolo[2,3-b]pyridin-5-yl)benzamide]	13.7
COc1cc(Cl)cc(C(=O)Nc2cnc3c(c(C4CCN(C(=O)C(C)C)CC4)cn3C)c2C(F)(F)F)c1 [Example 13, 3-chloro-N-(3-(1-isobutyrylpiperidin-4-yl)-1-methyl-4-(trifluoromethyl)-1H-pyrrolo[2,3-b]pyridin-5-yl)-5-methoxybenzamide]	48.7
CC(C)C(=O)N1CCC(c2cn(C)c3ncc(NC(=O)c4ccc(F)c(Cl)c4)c(C(F)(F)F)c23)CC1 [Example 12, 3-chloro-4-fluoro-N-(3-(1-isobutyrylpiperidin-4-yl)-1-methyl-4-(trifluoromethyl)-1H-pyrrolo[2,3-b]pyridin-5-yl)benzamide]	57.9
Cc1c(NC(=O)c2cccc(C#N)c2)cnc2c1c([C@@H]1CCN(C(=O)C(C)C)[C@@H](C)C1)cn2C [Example 113, 3-cyano-N-(3-((2S,4R)-1-isobutyryl-2-methylpiperidin-4-yl)-1,4-dimethyl-1H-pyrrolo[2,3-b]pyridin-5-yl)benzamide]	29.8
Cn1cc(C2CCN(C(=O)C3CCCC3)CC2)c2c(C(F)(F)F)c(NC(=O)c3ccc(F)c(C#N)c3)cnc21 [Example 3, 3-cyano-N-(3-(1-(cyclopentanecarbonyl)piperidin-4-yl)-1-methyl-4-(trifluoromethyl)-1H-pyrrolo[2,3-b]pyridin-5-yl)-4-fluorobenzamide]	39.2
COc1ccc(C(=O)Nc2cnc3c(c(C4CCN(C(=O)C(C)C)CC4)cn3C)c2C(F)(F)F)cc1Cl [Example 10, 3-chloro-N-(3-(1-isobutyrylpiperidin-4-yl)-1-methyl-4-(trifluoromethyl)-1H-pyrrolo[2,3-b]pyridin-5-yl)-4-methoxybenzamide]	51.3
Cc1c(NC(=O)c2ccc(F)c(C#N)c2)cnc2c1c([C@@H]1CCN(C(=O)C3CCCC3)C(C)(C)C1)cn2C [Example 61, (R)-3-cyano-N-(3-(1-(cyclopentanecarbonyl)-2,2-dimethylpiperidin-4-yl)-1,4-dimethyl-1H-pyrrolo[2,3-b]pyridin-5-yl)-4-fluorobenzamide]	25.6
COc1cc(Cl)cc(C(=O)Nc2cnc3c(c([C@@H]4CCN(C(=O)C(C)C)C(C)(C)C4)cn3C)c2C)c1 [Example 62, (R)-3-chloro-N-(3-(1-isobutyryl-2,2-dimethylpiperidin-4-yl)-1,4-dimethyl-1H-pyrrolo[2,3-b]pyridin-5-yl)-5-methoxybenzamide]	15.8
COc1cc(Cl)cc(C(=O)Nc2cnc3c(c(C4CCN(C(=O)[C@H](C)C(C)(C)C)CC4)cn3C)c2C)c1 [Example 42, (R)-3-chloro-N-(1,4-dimethyl-3-(1-(2,3,3-trimethylbutanoyl)piperidin-4-yl)-1H-pyrrolo[2,3-b]pyridin-5-yl)-5-methoxybenzamide]	31.3
COc1ccc(C(=O)Nc2cnc3c(c(C4CCN(C(=O)C(C)C)CC4)cn3C)c2C)cc1C#N [Example 110, 3-cyano-N-(3-(1-isobutyrylpiperidin-4-yl)-1,4-dimethyl-1H-pyrrolo[2,3-b]pyridin-5-yl)-4-methoxybenzamide]	24.7
Cc1c(NC(=O)c2cccc(C#N)c2)cnc2c1c([C@@H]1CCN(C(=O)C[C@@H](O)C(F)(F)F)C(C)(C)C1)cn2C [Example 73, 3-cyano-N-(3-((R)-2,2-dimethyl-1-((R)-4,4,4-trifluoro-3-hydroxybutanoyl)piperidin-4-yl)-1,4-dimethyl-1H-pyrrolo[2,3-b]pyridin-5-yl)benzamide]	25.3
Cn1cc(C2CCN(C(=O)[C@H]3CCCS3)CC2)c2c(C(F)(F)F)c(NC(=O)c3cccc(C#N)c3)cnc21 (single isomer, unassigned) [Example 28]	118
COc1ccc(C(=O)Nc2cnc3c(c(C4[C@@H]5CC[C@H]4CN(C(=O)C4CCCC4)C5)cn3C)c2C)cc1C#N (stereo partly drawn) [Example 99, 3-cyano-N-(3-((1R,5S,8r)-3-(cyclopentanecarbonyl)-3-azabicyclo[3.2.1]octan-8-yl)-1,4-dimethyl-1H-pyrrolo[2,3-b]pyridin-5-yl)-4-methoxybenzamide]	14.7
Cc1c(NC(=O)c2cc(Cl)ccc2F)cnc2c1c(C1CCN(C(=O)[C@H](C)C(C)(C)C)CC1)cn2C [Example 41, (R)-5-chloro-N-(1,4-dimethyl-3-(1-(2,3,3-trimethylbutanoyl)piperidin-4-yl)-1H-pyrrolo[2,3-b]pyridin-5-yl)-2-fluorobenzamide]	18.9
Cn1cc(C2CCN(C(=O)CC3CC3)CC2)c2c(C(F)(F)F)c(NC(=O)c3cccc(C#N)c3)cnc21 [Example 24, 3-cyano-N-(3-(1-(2-cyclopropylacetyl)piperidin-4-yl)-1-methyl-4-(trifluoromethyl)-1H-pyrrolo[2,3-b]pyridin-5-yl)benzamide]	17.4
CC(C(=O)N1CCC(c2cn(C)c3ncc(NC(=O)c4cccc(C#N)c4)c(C(F)(F)F)c23)CC1)C1CC1 (racemic) [Example 25, Rac-3-cyano-N-(3-(1-(2-cyclopropylpropanoyl)piperidin-4-yl)-1-methyl-4-(trifluoromethyl)-1H-pyrrolo[2,3-b]pyridin-5-yl)benzamide]	14.1
Cn1cc(C2CCN(C(=O)CC3CCCCC3)CC2)c2c(C(F)(F)F)c(NC(=O)c3cccc(C#N)c3)cnc21 [Example 20, 3-cyano-N-(3-(1-(2-cyclohexylacetyl)piperidin-4-yl)-1-methyl-4-(trifluoromethyl)-1H-pyrrolo[2,3-b]pyridin-5-yl)benzamide]	18.5
Cc1c(NC(=O)c2cccc(C#N)c2)cnc2c1c(C1CCN(C(=O)CC(C)C)CC1)cn2C [Example 109, 3-cyano-N-(1,4-dimethyl-3-(1-(3-methylbutanoyl)piperidin-4-yl)-1H-pyrrolo[2,3-b]pyridin-5-yl)benzamide]	32.1
Cc1c(NC(=O)c2cccc(C#N)c2)cnc2c1c(C1CCN(C(=O)[C@H]3CCC[C@@H]3C)CC1)cn2C (single isomer, unassigned) [Example 46]	57.4

More lines, in order of falling IC50, values ahead:

IC50 [nM]	SMILES
13.4	Cc1c(NC(=O)c2cccc(C#N)c2)cnc2c1c(C1CCN(C(=O)[C@@H]3CCC[C@@H]3C(C)C)CC1)cn2C (single isomer, unassigned) [Example 48]
12.2	COc1cc(C#N)cc(C(=O)Nc2cnc3c(c([C@@H]4CCN(C(=O)C5CCCC5)[C@@H](C)C4)cn3C)c2C)c1 [Example 90, 3-cyano-N-(3-((2S,4R)-1-(cyclopentanecarbonyl)-2-methylpiperidin-4-yl)-1,4-dimethyl-1H-pyrrolo[2,3-b]pyridin-5-yl)-5-methoxybenzamide]
10.2	Cc1c(NC(=O)c2cc(O)cc(C#N)c2)cnc2c1c([C@@H]1CCN(C(=O)C3CCCC3)C(C)(C)C1)cn2C [Example 64, (R)-3-cyano-N-(3-(1-(cyclopentanecarbonyl)-2,2-dimethylpiperidin-4-yl)-1,4-dimethyl-1H-pyrrolo[2,3-b]pyridin-5-yl)-5-hydroxybenzamide]
9.5	CC(C)C(=O)N1CCC(c2cn(C)c3ncc(NC(=O)c4cccc(C#N)c4)c(C(F)(F)F)c23)CC1 [Example 5, 3-cyano-N-(3-(1-isobutyrylpiperidin-4-yl)-1-methyl-4-(trifluoromethyl)-1H-pyrrolo[2,3-b]pyridin-5-yl)benzamide]
9.2	Cc1c(NC(=O)c2cccc(C#N)c2)cnc2c1c(C1CCN(C(=O)[C@H](C)C(C)C)CC1)cn2C [Example 37, (R)-3-cyano-N-(3-(1-(2,3-dimethylbutanoyl)piperidin-4-yl)-1,4-dimethyl-1H-pyrrolo[2,3-b]pyridin-5-yl)benzamide]
7.8	CC(C)C(=O)N1CCC(c2cn(C)c3ncc(NC(=O)c4ccc(Cl)c(C#N)c4)c(C(F)(F)F)c23)CC1 [Example 11, 4-chloro-3-cyano-N-(3-(1-isobutyrylpiperidin-4-yl)-1-methyl-4-(trifluoromethyl)-1H-pyrrolo[2,3-b]pyridin-5-yl)benzamide]
6.4	Cc1c(NC(=O)c2cccc(C#N)c2)cnc2c1c(C1CCN(C(=O)[C@H](C)C3CCCC3)CC1)cn2C [Example 51, (R)-3-cyano-N-(3-(1-(2-cyclopentylpropanoyl)piperidin-4-yl)-1,4-dimethyl-1H-pyrrolo[2,3-b]pyridin-5-yl)benzamide]
6	Cn1cc(C2CCN(C(=O)C3CCCC3)CC2)c2c(C(F)(F)F)c(NC(=O)c3cc(O)cc(C#N)c3)cnc21 [Example 55, 3-cyano-N-(3-(1-(cyclopentanecarbonyl)piperidin-4-yl)-1-methyl-4-(trifluoromethyl)-1H-pyrrolo[2,3-b]pyridin-5-yl)-5-hydroxybenzamide]
5	C[C@@H](C(=O)N1CCC(c2cn(C)c3ncc(NC(=O)c4cc(O)cc(C#N)c4)c(C(F)(F)F)c23)CC1)C(C)(C)C [Example 54, (R)-3-cyano-5-hydroxy-N-(1-methyl-4-(trifluoromethyl)-3-(1-(2,3,3-trimethylbutanoyl)piperidin-4-yl)-1H-pyrrolo [2,3-b]pyridin-5-yl)benzamide]
4.9	Cc1c(NC(=O)c2cc(O)cc(C#N)c2)cnc2c1c(C1CCN(C(=O)[C@H](C)C(C)(C)C)CC1)cn2C [Example 56, (R)-3-cyano-N-(1,4-dimethyl-3-(1-(2,3,3-trimethylbutanoyl)piperidin-4-yl)-1H-pyrrolo[2,3-b]pyridin-5-yl)-5-hydroxybenzamide]
4.1	Cn1cc(C2[C@@H]3CC[C@H]2CN(C(=O)C2CCCC2)C3)c2c(C(F)(F)F)c(NC(=O)c3cccc(C#N)c3)cnc21 (stereo partly drawn) [Example 79, 3-cyano-N-{3-((1R,5S,8r)-3-(cyclopentanecarbonyl)-3-azabicyclo[3.2.1]octan-8-yl]-1-methyl-4-(trifluoromethyl)-1H-pyrrolo[2,3-b]pyridin-5-yl}benzamide]
3.4	Cc1c(NC(=O)c2cccc(C#N)c2)cnc2c1c(C1CCN(C(=O)[C@H](C)C34CC(C3)C4)CC1)cn2C [Example 50, (R)—N-(3-(1-(2-(bicyclo[1.1.1]pentan-1-yl)propanoyl)piperidin-4-yl)-1,4-dimethyl-1H-pyrrolo[2,3-b]pyridin-5-yl)-3-cyanobenzamide]
